Assay results published in US20250000846A1, “METHODS OF TREATMENT OR PREVENTION OF ACUTE BRAIN OR NERVE INJURIES” (Annovis Bio, Inc., priority 2015, published 2025).

Key:
[1] = system: retinal neurons; assay: Retinal ischemia-reperfusion (IR), Cell Death ELISA of retina; format: in vivo, Sprague-Dawley rats; settings: posiphen tartrate 30 mg/kg oral gavage once per day
Text: IR is a well-established experimental model of glaucoma as well as neuronal cell death in other retinal diseases. IR was induced on one eye of each rat while the opposite eye served as an internal control. Transient IR was induced by raising the intraocular pressure by a controlled micro-injection of saline into the anterior chamber of the eye. This approach is well established to induce large amounts of apoptotic cell death in the retina, beginning within hours after the reperfusion and continuing for several days, leading to a loss of about 50% of the retina. There would also be a dramatic and persistent increase in the permeability of the vasculature of the inner retina during this period, which may lead to edema.
Adult male Sprague-Dawley rats (approx. 450 g, n=8) were housed under normal 12 hr light/dark conditions with free access to food and water. Rats were given posiphen tartrate (30 mg/kg body weight, delivered in 15 mg/ml water) or an equivalent volume of water (vehicle) by oral gavage once per day. Gavage was performed daily over three days and then on the fourth day IR was induced in anesthetized rats (ketamine:xylazine, 100:10 mg/kg, i.p.). […] The retinas were homogenized and fractionated to obtain a cytoplasmic sample which was assessed for nucleosome content in duplicate, using the Cell Death ELISA (Roche). Data were averaged and expressed as optical density (OD). […]

[2] = system: rats subjected to mild traumatic brain injury; assay: Working memory test in Morris water maze after fluid percussion injury; format: in vivo
Procedure: The vehicle or posiphen tartrate treated rats from Example 2 were also subjected to working memory test in Morris water maze. Each of the rats was individually tested in the Morris water maze, which had 4 release points for putting the rat into the water and 4 platforms for the rat to swim to. For a total of 3 consecutive days (on one and two days before the last vehicle or posiphen treatment, and also on the day of the last vehicle or posiphen treatment before euthanasia), the rats were tested on their ability to find the 4 platform positions, using paired trials (4 paired trials per day). In each pair of the trials, the first trial was the learning trial, for the rat to learn the position of a platform, and the second trial was the memory trial for testing the memory of the rat to swim to the platform that the rat learned in the learning trial. In the learning trial, each of the rats was allowed a maximum swim time of 90 seconds to swim to the platform, and guided to the platform if needed after 90 seconds. The memory trial was started 5 seconds after the completion of the learning trial and the time for the rat to reach the platform by swimming in the maze in the memory trial was recorded. The 4 platform positions were switched after every pair of trials. The time interval between the learning trials of two consecutive pairs of trials in a day was 5 minutes. […]

[3] = system: IBA-1+ microglia cells in the substantia nigra; assay: Fluid percussion injury, microglial activation by diameter of IBA-1-positive cells in substantia nigra; format: in vivo, rats; settings: 10 mg/kg
Procedure: Because FPI can induce microglial activation according to Hutson et al (J. Neurotrauma, Jun. 6, 2011; PMID:21644813), whether posiphen would reverse this pathological response using quantitative measures was tested in the vehicle or posiphen tartrate treated (10 mg/kg) rats from Example 2 (part of the brain from each of the euthanized rat was stained for tyrosine hydroxylase in Example 2 and another part of the brain was stained for microglia in Example 3). Microglial activation was assessed by quantitative measure of the diameter of IBA-1-positive cells, wherein IBA-1 stands for ionized calcium adaptor binding protein.
Analysis was done on a Leica DM-LB microscope with a Ludl XYZ motorized stage and z-axis microcator (MT12, Heidenheim, Traunreut, Germany) using StereoInvestigator software
(MicroBrightField, Colchester, VT). A contour was drawn to delineate the substantia nigra under the 5× objective lens to ensure anatomical accuracy. Following delineation, the diameters of microglial cell bodies were measured in the first counting frame (100 μm) and then in every fifth counting frame at 40× magnification. This sampling frequency was chosen in order to count approximately 30-50 IBA-1+ cells in each side of the substantia nigra. The first counting frame was always positioned in the upper left corner of the contour and systematically moved from left to right and from top to bottom until the entire delineated contour region was sampled. The number of IBA-1+ microglia cells with cell diameters ranging from 1 μm to 14 μm was then normalized to the total number counted in each section and expressed as a percentage of total microglia. The results are shown in FIG. 4 (wherein the percent of IBA-1+ cells was plotted on the vertical axis, and the microglial cell diameter in um was plotted on the horizontal axis). In FIG. 4, the blank portion of each data bar represents the mean % of IB A-1+ cells with the solid or striped portion at the top of the bar representing the 95% confidence interval. In each pair of data bars in FIG. 4, the bar on the left having a solid portion at the top represents data from the vehicle-treated group, while the bar on the right having a striped portion at the top represents data from the 10 mg/kg posiphen-treated group, wherein the data of the posiphen-treated group (the bar on the right) were compared with the data of the vehicle-treated group (the bar on the left) with Bootstrapping method. The asterisks (*) at the top of some of the bars of the 10 mg/kg posiphen-treated group indicate statistical significance at p<0.05 when compared with the data of the corresponding bar of the vehicle-treated group as analyzed with the Bootstrapping method. Posiphen increased the number of resting microglia and reduced the number of activated microglia.

[4] = system: TH+ terminals in the striatum; assay: Fluid percussion injury (mild TBI), tyrosine hydroxylase (TH) immunoreactivity in striatum; format: in vivo, rats
Procedure: Rats were subjected to fluid percussion injury (FPI) or sham operation to one side of the brain using the same procedures described in Griesbach et al (Brain Research, 1288: 105-115,2009, PMCID:PMC2735616) and Hutson et al (J. Neurotrauma, Jun. 6, 2011; PMID:21644813). […] About 5 to 30 minutes after FPI or sham operation, the rats were administered with saline or posiphen tartrate at a dose of 2.5, 5 or 10 mg/kg body weight intraperitoneally and also daily for the next 28 to 32 days. At 90 minutes after the last saline or posiphen treatment, all the rats were sacrificed and sections of the brain of each of the rats were stained for tyrosine hydroxylase (TH), wherein TH stains only live cells. The amounts of TH immunoreactivity in the whole striatum of the brain slices were measured, Stereological analysis of dopaminergic (DA) neurons in the substantia nigra was conducted to determine whether posiphen would block the TBI-induced loss of DA neurons ipsilateral and contralateral to the FPI injury, using procedures described in Johnson et al (Brain Pathol. Jun. 29, 2011, doi: 10.1111/j.1750-3639.2011.00513.x) and Hoshino et al (Neurol. Med. Chir. (Tokyo), 2003 April; 43 (4): 165-74). The groups of rats included the rats with LOC above/at the median value. In FIG. 2, the sham operated group was compared with the vehicle group with two-way ANOVA, Bonferroni comparisons, wherein *p<0.05. In FIG. 3, the vehicle group was compared with the posiphen-treatment groups with one-way ANOVA, Bonferroni comparisons, wherein ^#p<0.05.

With `CN1CC[C@]2(C)c3cc(OC(=O)Nc4ccccc4)ccc3N(C)C12` (stereo partly drawn) [posiphen, (3aR)-1,3a,8-trimethyl-1,2,3,3a,8,8a-hexahydropyrrolo[2,3-b]indol-5-yl phenylcarbamate] the “number of dead nerve cells in retina of IR eye (IR-Pos) versus opposite eye (control-Pos)” value [1] was “only slightly more”, the retinal neurons rescued ([1]; eye subjected to transient IR (IR-Pos), N=6) was 72% and the “latency to find the platform versus vehicle-treated group” value ([2]; 2.5 mg/kg and 5 mg/kg, p=0.0961) was “non-significant trend toward a reduction”. The “latency to reach the platform in memory trials versus vehicle-treated group” value ([2]; 10 mg/kg, p=0.0335) was “amelioration of this deficit”, the “brain inflammation after traumatic brain injury” value [3] was “decreased” and the “FPI-increased microglia activation in the substantia nigra ipsilateral to the injury” value ([3]; statistically significant) was “attenuated”. The “number of activated microglia” value ([3]; versus vehicle-treated group) was “reduced”, the “number of resting microglia” value ([3]; versus vehicle-treated group) was “increased” and the “number of surviving cells in the ipsilateral area of the brain (striatum)” value ([4]; 2.5, 5 and 10 mg/kg i.p. daily for 28 to 32 days, all 3 doses) was “statistically significant increase”. The “TH+ fluorescence intensity versus vehicle-treated group” value ([4]; all posiphen-treated groups (2.5, 5, 10 mg/kg), one-way ANOVA, p<0.05) was “significantly higher”, the “number of nerve cells of the striatum in the contralateral part of the brain” value ([4]; highest dose of 10 mg/kg i.p. daily) was “an increase” and the “protection of the TH+ cells in ipsilateral striatum (whole, rostral, medial and caudal)” value ([4]; posiphen treated animals, ipsilateral side) was “full protection”. For the same molecule, the “FPI-induced decrease in the TH+ terminals in the striatum” value ([4]; rat, in vivo) was “attenuated”.
